# Target: Tyrosine-protein kinase SYK (Homo sapiens, UniProt P43405)
# Test: In Vitro SYK Inhibition Assay
# Conditions: pH 7.8; 25 °C
# Experimental: SYK kinase was purified as a full length protein in a baculovirus system near homogeneity. All kinase assays were performed with the Kinase TK (tyrosine kinase) HTRF (Homogeneous Time Resolved Fluorescence) assay developed by Cisbio international. […] Reactions were initiated upon introduction of the enzyme and terminated with the addition of one reaction volume (25 μl) of HTRF detection buffer. Plates were incubated for one hour at room temperature and the time resolved Fluorescence resonance energy transfer signal was measured in a Pherastar FS microplate reader (BMG Labtech). All data were the average of triplicate results with a standard deviation <10%.
smiles,measurement,value
"O=C1NCCN(c2ncc(-c3cccc(Nc4nccc(-c5cccnc5)n4)c3)o2)C12CC2 [US10053455, 019]",IC50,< 500 nM

# — BindingDB's records for patent US10053455 (Ab Science, 2018)
